Drawing on patent US20260317324A1, “BIFUNCTIONAL COMPOUNDS FOR DEGRADING BRAF VIA UBIQUITIN PROTEOSOME PATHWAY” (Nurix Therapeutics, Inc., priority 2023, published 2026), this text covers DC50 and Dmax for nine compounds.

The term DC50 denotes the concentration at which degradation of the target reaches its halfway point. A lower DC50 goes with a more potent degrader. Usually Dmax stands for the greatest extent of degradation seen. A high value points to a fuller loss of target.

Format in all cases: cell-based
The target of assay [1] is T1, BRAF D594G (Homo sapiens, UniProt P15056, D594G).
T1 construct: Horizon Discovery (HCT-116 BRAF−/− cells); host or cells: HCT-116 BRAF−/− cells, clone 63, lentiviral transduction
T1 sequence (P15056 whole entry D594G): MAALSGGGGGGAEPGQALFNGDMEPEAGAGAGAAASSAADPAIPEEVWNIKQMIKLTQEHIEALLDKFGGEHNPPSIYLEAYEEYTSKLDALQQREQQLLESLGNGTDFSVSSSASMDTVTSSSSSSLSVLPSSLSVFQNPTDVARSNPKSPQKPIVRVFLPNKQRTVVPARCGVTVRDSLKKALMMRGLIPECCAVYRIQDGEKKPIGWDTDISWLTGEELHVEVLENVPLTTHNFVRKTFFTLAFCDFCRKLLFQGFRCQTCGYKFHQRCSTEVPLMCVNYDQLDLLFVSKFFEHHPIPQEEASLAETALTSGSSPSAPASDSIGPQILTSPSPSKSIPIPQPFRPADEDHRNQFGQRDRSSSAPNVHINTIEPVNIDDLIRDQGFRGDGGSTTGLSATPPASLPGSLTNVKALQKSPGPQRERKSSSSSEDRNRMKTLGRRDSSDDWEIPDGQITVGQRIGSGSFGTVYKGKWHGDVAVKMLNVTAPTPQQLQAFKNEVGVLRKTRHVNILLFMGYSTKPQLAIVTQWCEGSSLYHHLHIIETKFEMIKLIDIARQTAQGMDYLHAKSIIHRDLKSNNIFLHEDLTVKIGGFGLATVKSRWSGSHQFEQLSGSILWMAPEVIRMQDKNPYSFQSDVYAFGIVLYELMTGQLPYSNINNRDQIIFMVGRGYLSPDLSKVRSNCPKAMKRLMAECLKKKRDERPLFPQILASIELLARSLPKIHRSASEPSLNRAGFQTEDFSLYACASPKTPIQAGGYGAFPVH
Put plainly: BRAF HiBiT degradation assay, C-terminal HiBiT-tagged BRAF D594G overexpressed in HCT-116 BRAF−/− cells (clone 63), Nano-Glo HiBiT Lytic assay. An outline of the steps: (§1)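 First, the stable HiBiT-tagged cells were plated and incubated for 24 h. Next, compound was added in duplicate as an 11-point series with a 1 μM top concentration. Lytic detection followed, with DMSO-treated parental cells used for background. Finally, DC50 and Obs. Dmax relative to DMSO were derived from the % protein remaining curves.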
For orientation: HiBiT is a short tag that completes a luciferase, so light tracks the accessible tagged protein.

Assay [2] deals with T2, BRAF G469A (Homo sapiens, UniProt P15056, G469A).
T2 construct: Horizon Discovery (HCT-116 BRAF−/− cells); host or cells: HCT-116 BRAF−/− cells, clone 34, lentiviral transduction
T2 sequence (P15056 whole entry G469A): as the sequence (P15056 whole entry D594G) above, with G469A, G594D counted along it
Put plainly: BRAF HiBiT degradation assay, C-terminal HiBiT-tagged BRAF G469A overexpressed in HCT-116 BRAF−/− cells (clone 34), Nano-Glo HiBiT Lytic assay. An outline of the steps:
as §1

In assay [3] the target is T3, BRAF G466V (Homo sapiens, UniProt P15056, G466V).
T3 construct: Horizon Discovery (HCT-116 BRAF−/− cells); host or cells: HCT-116 BRAF−/− cells, clone 8, lentiviral transduction
T3 sequence (P15056 whole entry G466V): as the sequence (P15056 whole entry D594G) above, with G466V, G594D counted along it
Put plainly: BRAF HiBiT degradation assay, C-terminal HiBiT-tagged BRAF G466V overexpressed in HCT-116 BRAF−/− cells (clone 8), Nano-Glo HiBiT Lytic assay. The method in brief:
as §1

The target in assay [4] is T4, BRAF V600E (Homo sapiens, UniProt P15056, V600E).
T4 construct: endogenous C-terminal HiBiT fusion tag on BRAF V600E allele; endogenous in cells; host or cells: A375 clone 1F10 (CRISPR-Cas9 knock-in of the HiBiT tag; parental A375 from ATCC)
T4 sequence (P15056 whole entry V600E, the tested form may be a part): as the sequence (P15056 whole entry D594G) above, with G594D, V600E counted along it
The experiment in a line: BRAF HiBiT degradation assay, C-terminal HiBiT-tagged BRAF V600E A375 cells (clone 1F10), Nano-Glo HiBiT Lytic assay. The conditions noted are these: for Dmax: A-375. The method in brief: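 Degradation is measured as loss of HiBiT signal from BRAF V600E tagged at its native locus in A375 cells. Doses span 1 μM to 0.01 nM in half-log steps, in duplicate. Percent remaining is calculated against DMSO controls after subtracting untagged A375 background, and curve fitting yields DC50 and observed Dmax.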

[5] abbreviates: BRAF D594G, DC50 at 50%: fitted conc. at Y=50.
[6] abbreviates: HCT-116, BRAF D594G, percentage protein degraded at maximal compound effect relative to DMSO.
The mark [7] stands for this setting: Class 2, BRAF G469A, DC50 at 50%: fitted conc. at Y=50.
Setting [8] is: HCT-116, Class 2, BRAF G469A, percentage protein degraded at maximal compound effect relative to DMSO.
The mark [9] stands for this setting: BRAF G466V, DC50 at 50%: fitted conc. at Y=50.
[10] abbreviates: HCT-116, BRAF G466V, percentage protein degraded at maximal compound effect relative to DMSO.
[11] abbreviates: A375 (BRAF V600E), DC50 at 50%: fitted conc. at Y=50.
Setting [12] is: A375 (BRAF V600E), percentage protein degraded at maximal compound effect relative to DMSO.
[13] abbreviates: BRAF D594G (Class 3), HCT-116 BRAF−/− cells, DC50 at 50% degradation.
Where [14] appears, read: BRAF D594G (Class 3), HCT-116 BRAF−/− cells, observed Dmax relative to DMSO control.
The mark [15] stands for this setting: BRAF G469A (Class 2), HCT-116 BRAF−/− cells, DC50 at 50% degradation.
[16] abbreviates: BRAF G469A (Class 2), HCT-116 BRAF−/− cells, observed Dmax relative to DMSO control.
Where [17] appears, read: BRAF G466V (Class 3), HCT-116 BRAF−/− cells, DC50 at 50% degradation.
The mark [18] stands for this setting: BRAF G466V (Class 3), HCT-116 BRAF−/− cells, observed Dmax relative to DMSO control.
The mark [19] stands for this setting: A375 (BRAF V600E, Class 1), DC50 at 50% degradation.
Setting [20] is: A375 (BRAF V600E, Class 1), observed Dmax, % protein degraded relative to DMSO control.

As to `CCCS(=O)(=O)Nc1cccc(-c2nc(C(C)(C)C)sc2-c2ccnc(Nc3ccc(N4CCN(CC5CCN(c6ccc(C7CCC(=O)NC7=O)cn6)CC5)CC4)c(F)c3)n2)c1F` (racemic) [Compound 45, Rac-N-[3-(2-tert-butyl-5-{2-[(4-{4-[(1-{5-[(3R)-2,6-dioxopiperidin-3-yl]pyridin-2-yl}piperidin-4-yl)methyl]piperazin-1-yl}-3-fluorophenyl)amino]pyrimidin-4-yl}-1,3-thiazol-4-yl)-2-fluorophenyl]propane-1-sulfonamide], the half-maximal degradation concentration (DC50) in assay [1] (setting [5]) was 10 to 50 nM; in assay [2] (setting [7]), greater than 500 nM; in assay [3] (setting [9]), less than 10 nM; in assay [4] (setting [11]), 10 to 50 nM. The maximal degradation (Dmax) in assay [1] (setting [6]) was 30 to 70%; in assay [2] (setting [8]) it was 30 to 70%; in assay [3] (setting [10]), greater than 70%; in assay [4] (setting [12]), greater than 70%.
As for `O=C1CCC(c2ccc(N3CCC(CN4CCN(c5ccc(-n6cc(-c7cc(Cl)cc(NS(=O)(=O)N8CCCC8)c7F)c(-c7ccncc7)n6)cn5)CC4)CC3)nc2)C(=O)N1` (racemic) [Compound 352, Rac-N-{5-chloro-3-[1-(6-{4-[(1-{5-[(3R)-2,6-dioxopiperidin-3-yl]pyridin-2-yl}piperidin-4-yl)methyl]piperazin-1-yl}pyridin-3-yl)-3-(pyridin-4-yl)-1H-pyrazol-4-yl]-2-fluorophenyl}pyrrolidine-1-sulfonamide], the DC50 in assay [1] (setting [13]), in assay [2] (setting [15]), in assay [3] (setting [17]) and in assay [4] (setting [19]) was less than 10 nM in each case. Further, the greatest degradation seen (Dmax) in assay [1] (setting [14]) was 30 to 70%; in assay [2] (setting [16]) it was greater than 70%; in assay [3] (setting [18]), greater than 70%; in assay [4] (setting [20]) it was greater than 70%.
For the compound `CCN(C)S(=O)(=O)Nc1cccc(-c2nc(C)sc2-c2ccnc(Nc3ccc(N4CCN(C(=O)C5CCN(c6ccc(C7CCC(=O)NC7=O)cn6)CC5)CC4)cn3)n2)c1F` (racemic) [Compound 40, Rac-(3S)-3-[6-(4-{4-[6-({4-[4-(3-{[ethyl(methyl)sulfamoyl]amino}-2-fluorophenyl)-2-methyl-1,3-thiazol-5-yl]pyrimidin-2-yl}amino)pyridin-3-yl]piperazine-1-carbonyl}piperidin-1-yl)pyridin-3-yl]piperidine-2,6-dione], the DC50 was greater than 500 nM in assay [1] (setting [5]), 10 to 50 nM in assay [2] (setting [7]), greater than 500 nM in assay [3] (setting [9]) and less than 10 nM in assay [4] (setting [11]). The greatest degradation seen (Dmax) is 30 to 70% in assay [1] (setting [6]), 30 to 70% in assay [2] (setting [8]), 30 to 70% in assay [3] (setting [10]) and greater than 70% in assay [4] (setting [12]).
As to `O=C1CCC(c2ccc(N3CCC(CN4CCN(c5ccc(-n6cc(-c7cc(Cl)cc(NS(=O)(=O)N8CC(F)C8)c7F)c(-c7ccncc7)n6)c(F)c5)CC4)CC3)nc2)C(=O)N1` (racemic) [Compound 337, Rac-N-{5-chloro-3-[1-(4-{4-[(1-{5-[(3R)-2,6-dioxopiperidin-3-yl]pyridin-2-yl}piperidin-4-yl)methyl]piperazin-1-yl}-2-fluorophenyl)-3-(pyridin-4-yl)-1H-pyrazol-4-yl]-2-fluorophenyl}-3-fluoroazetidine-1-sulfonamide], the half-maximal degradation concentration (DC50) in assay [1] (setting [13]) is less than 10 nM; in assay [2] (setting [15]), 10 to 50 nM; in assay [3] (setting [17]), less than 10 nM; in assay [4] (setting [19]) it was less than 10 nM. The greatest degradation seen (Dmax) in assay [1] (setting [14]) is 30 to 70%; in assay [2] (setting [16]), 30 to 70%; in assay [3] (setting [18]), greater than 70%; in assay [4] (setting [20]) it was greater than 70%.
Regarding `CCCS(=O)(=O)Nc1cccc(-c2nc(C(C)(C)C)sc2-c2ccnc(Nc3ccc(C4CCN(C(=O)C5CCN(c6cc(C7CCC(=O)NC7=O)ccn6)CC5)CC4)cc3)n2)c1F` (racemic) [Compound 163, Rac-N-(3-{2-tert-butyl-5-[2-({4-[1-(1-{4-[(3R)-2,6-dioxopiperidin-3-yl]pyridin-2-yl}piperidine-4-carbonyl)piperidin-4-yl]phenyl}amino)pyrimidin-4-yl]-1,3-thiazol-4-yl}-2-fluorophenyl)propane-1-sulfonamide], the DC50 in assay [1] (setting [5]) is greater than 500 nM; in assay [2] (setting [7]), greater than 500 nM; in assay [3] (setting [9]), greater than 500 nM; in assay [4] (setting [11]) it was 50 to 500 nM. The greatest degradation seen (Dmax) in assay [1] (setting [6]) is less than 30%; in assay [2] (setting [8]) it was less than 30%; in assay [3] (setting [10]) it was less than 30%; in assay [4] (setting [12]) it was 30 to 70%.
For the compound `CCCS(=O)(=O)Nc1cccc(-c2nc(C(C)(C)C)sc2-c2ccnc(Nc3ccc(N4CCN(C(=O)CC5CCN(c6ccc(NC7CCC(=O)NC7=O)cc6)CC5)CC4)c(F)c3)n2)c1F` (racemic) [Compound 46, Rac-N-{3-[2-tert-butyl-5-(2-{[4-(4-{2-[1-(4-{[(3R)-2,6-dioxopiperidin-3-yl]amino}phenyl)piperidin-4-yl]acetyl}piperazin-1-yl)-3-fluorophenyl]amino}pyrimidin-4-yl)-1,3-thiazol-4-yl]-2-fluorophenyl}propane-1-sulfonamide], the DC50 in assay [1] (setting [5]) was 50 to 500 nM; in assay [2] (setting [7]) it was greater than 500 nM; in assay [3] (setting [9]), less than 10 nM; in assay [4] (setting [11]), less than 10 nM. For the same compound, the Dmax is 30 to 70% in assay [1] (setting [6]), 30 to 70% in assay [2] (setting [8]), 30 to 70% in assay [3] (setting [10]) and greater than 70% in assay [4] (setting [12]).
For the compound `CCCS(=O)(=O)Nc1cccc(-c2nc(C3CCN(C(=O)C4CCN(CC5CCN(c6ccc(C7CCC(=O)NC7=O)cn6)CC5)CC4)CC3)sc2-c2ccnc(NC)n2)c1F` (racemic) [Compound 217, Rac-N-{3-[2-(1-{1-[(1-{5-[(3R)-2,6-dioxopiperidin-3-yl]pyridin-2-yl}piperidin-4-yl)methyl]piperidine-4-carbonyl}piperidin-4-yl)-5-[2-(methylamino)pyrimidin-4-yl]-1,3-thiazol-4-yl]-2-fluorophenyl}propane-1-sulfonamide], the DC50 in assay [1] (setting [5]) was greater than 500 nM; in assay [2] (setting [7]) it was greater than 500 nM; in assay [3] (setting [9]), greater than 500 nM; in assay [4] (setting [11]), 10 to 50 nM. The maximal degradation (Dmax) in assay [1] (setting [6]) is 30 to 70%; in assay [2] (setting [8]), less than 30%; in assay [3] (setting [10]), 30 to 70%; in assay [4] (setting [12]), greater than 70%.
For `CCN(C)S(=O)(=O)Nc1cccc(-c2nc(C(C)(C)C)sc2-c2ccnc(Nc3ccc(N4CCN(CC5CCN(c6ccc(C7CCC(=O)NC7=O)cn6)CC5)CC4)cn3)n2)c1F` (racemic) [Compound 126, Rac-(3S)-3-{6-[4-({4-[6-({4-[2-tert-butyl-4-(3-{[ethyl(methyl)sulfamoyl]amino}-2-fluorophenyl)-1,3-thiazol-5-yl]pyrimidin-2-yl}amino)pyridin-3-yl]piperazin-1-yl}methyl)piperidin-1-yl]pyridin-3-yl}piperidine-2,6-dione], the 50% degradation concentration (DC50) in assay [1] (setting [5]) was less than 10 nM; in assay [2] (setting [7]) it was 10 to 50 nM; in assay [3] (setting [9]), 10 to 50 nM; in assay [4] (setting [11]), 10 to 50 nM. The Dmax in assay [1] (setting [6]) was 30 to 70%; in assay [2] (setting [8]), 30 to 70%; in assay [3] (setting [10]), greater than 70%; in assay [4] (setting [12]), greater than 70%.
For `O=C1CCN(c2ccc(N3CCC(CN4CCN(c5ccc(-n6cc(-c7cc(F)cc(NS(=O)(=O)N8CC[C@@H](F)C8)c7F)c(-c7ccncc7)n6)nc5)CC4)CC3)cc2)C(=O)N1` [Compound 303, (3R)—N-[3-(1-{5-[4-({1-[4-(2,4-dioxo-1,3-diazinan-1-yl)phenyl]piperidin-4-yl}methyl)piperazin-1-yl]pyridin-2-yl}-3-(pyridin-4-yl)-1H-pyrazol-4-yl)-2,5-difluorophenyl]-3-fluoropyrrolidine-1-sulfonamide], the DC50 in assay [1] (setting [13]) was less than 10 nM; in assay [2] (setting [15]) it was 50 to 500 nM; in assay [3] (setting [17]) it was 10 to 50 nM; in assay [4] (setting [19]), less than 10 nM. Also, the Dmax in assay [1] (setting [14]) is 30 to 70%; in assay [2] (setting [16]), 30 to 70%; in assay [3] (setting [18]) it was 30 to 70%; in assay [4] (setting [20]) it was greater than 70%.
